This is an account of results in US10028935B2, “Stabilized multi-functional antioxidant compounds and methods of use” (XPD Holdings, LLC, priority 2012, dated 2018).

The nature of data set [1]: Solubility of stock solutions in dimethyl sulfoxide (DMSO). Format: physicochemical. Particulars: organic solvent or mixture, stock solution in dimethyl sulfoxide. The procedure:
(§1) The solubility of Compound 45 and carnosine in physiologic buffer (phosphate buffered saline, pH 7.4; PBS) were determined using a BMG Labtech NEPHELOstar nephelometer (Offenburg, Germany) with Galaxy analytical software, version 4.32R2. Stock solutions of each compound were prepared initially in dimethyl sulfoxide (DMSO); Compound 45 was soluble at a concentration of 50 mM in DMSO, while carnosine was not. Subsequently, dilution series of both compounds were prepared directly in PBS (pH 7.4) for evaluation of solubility using nephlometry, with a top concentration of 500 mg/mL for each compound and serial 1:2 dilutions. A positive control compound was included to qualitatively illustrate concentration-solubility relationships using heat maps. Compound 45 was soluble in physiologic buffer at a concentration of 500 mg/mL, while carnosine was soluble only at concentrations of 250 mg/mL.

Data set [2] in a line: Solubility in physiologic buffer (PBS, pH 7.4) by nephelometry. Format: physicochemical. To be noted: aqueous buffer, thermodynamic from solid, phosphate buffered saline, top concentration 500 mg/mL, serial 1:2 dilutions. The method, then:
as §1

Data set [3] is described as follows: Storage stability by reversed-phase HPLC quantitation of degradation products (impurities). Format: physicochemical. To be noted: storage for 1 or 2 months at 5° C., 25° C./60% RH and 40° C./75% RH; FIGS. 1-3. The procedure:
The stability of Compound 45 and N-acetylcysteine amide (NACA) were determined using reversed-phase HPLC quantitation of the appearance of degradation products (impurities) after storage of the compounds for 1 or 2 months at 5° C., 25° C./60% relative humidity (RH), and 40° C./75% RH.
The chromatographic system used was an Agilent 1100 HPLC comprised of a degasser (model G1322A), pump (model G1311A), autosampler (model G1329A), column compartment (model G1316A), and a diode array detector (model G1315A). Agilent Chemstation software Rev. B.03.02 [341] was used to acquire and analyze all chromatographic data. […] Assay, identity, and purity of Compound 45 and NACA, and quantitation of impurities arising over time, was accomplished by a reversed-phase isocratic method using a Phenomenex Synergi Polar-RP (250×4.6 mm, […]) column at 15° C., 0.2% perchloric acid (PCA) in water and acetonitrile as mobile phase, UV detection at 210 nm, and a standard run time of 20 minutes. Standard solutions of Compound 45 and NACA were prepared in 0.2% perchloric acid to generate standard curves for quantitation of Compound 45 and NACA. Replicate samples of each analyte were collected at study initiation (baseline), after 1 month of storage under the various conditions and after 2 months of storage for quantitation of parent and impurities. […]

Data set [4] can be described thus: Hydrolysis in human whole blood (disappearance of Compound 45, appearance of NACA and carnosine). It is filed as in vitro ADME. Particulars: 37° C. The procedure: To determine hydrolysis of Compound 45 and appearance of NACA and carnosine in blood, samples of human whole blood from healthy donors anti-coagulated with sodium heparin were thermally equilibrated to, and maintained at 37° C. in a water bath. Compound 45 was then spiked from a single freshly prepared stock solution into blood aliquots to create separate samples of varying Compound 45 starting concentrations (135 μM, 13.5 μM, 10.9 μM [5 μg/mL], and 2.2 μM [1 μg/mL]). Immediately after spiking, tubes were mixed by very gently rocking tubes manually for 5 minutes to ensure homogeneity and remained in the 37° C. water bath until all time points were collected. […] Plasma samples were processed for quantitation of the disappearance (hydrolysis) of Compound 45 and the appearance of NACA or carnosine, as described below. […]
Samples in 96-well plates were analyzed on a Waters Acquity UPLC™ liquid chromatograph interfaced with a Thermo Scientific TSQ Vantage triple quadrupole mass spectrometer with electrospray ionization in the positive ion mode. […]
Compound 45, Carnosine and the NACA-thio-ether derivative product eluted at approximately 1.3 minutes. Compound 45 was detected by selected reaction monitoring of the mass-to-charge (m/z) 371 to 110 transition. Carnosine was detected by selected reaction monitoring of the m/z 227 to 110 transition. […]

Values after ≈ are worked out from the molar mass of the structure shown.

Usually solubility stands for how much of the substance goes into solution per volume. With `NCCC(=O)N[C@@H](Cc1cnc[nH]1)C(=O)O` [carnosine, reference compound], the solubility in data set [1] was under 50 mM; in data set [2], 250 mg/mL (≈ 1110 mM).

`CC(=O)N[C@@H](CSC(=O)[C@H](Cc1cnc[nH]1)NC(=O)CCN)C(N)=O` [Compound 45, (S)-S((R)-2-acetamido-3-amino-3-oxopropyl) 2-(3-aminopropanamido)-3-(1H-imidazol-5-yl)propanethioate]: the “extent of degradation as measured by the percent change (increase) from baseline in impurities” value in data set [3] is “less than the increase in impurities for NACA”. The solubility was at least 50 mM in data set [1] and at least 500 mg/mL in data set [2]. For the same molecule, the “metabolism of thioester linkage in blood” value in data set [4] is reported as “rapidly metabolized in blood”.
